According to patent US20210017295A1, “BISPECIFIC BINDING AGENTS AND USES THEREOF” (MEMORIAL SLOAN KETTERING CANCER CENTER, priority 2018, published 2021):
Where “and” joins values, the source holds several entries; their conditions need not be identical. Equal entries are not always repeated. Where two headings read alike, the source gives them in different places.

Test system: s.c. HER2(+) BT-474 tumors
Format: in vivo, mouse
Conditions: 24 h p.i.
[1] = PRIT + CA 62.5 μg, 55.5 MBq (~300 pmol), mean ± SEM
[2] = PRIT + CA 62.5 μg, ~5.6 MBq (~30 pmol), mean ± SEM
[3] = PRIT, CA 0% (saline), mean ± SD
[4] = PRIT, CA 7.5% w/w 18.75 μg, mean ± SD
[5] = PRIT, CA 14% w/w 37.5 μg, mean ± SD
[6] = PRIT, CA 28% w/w 70 μg, mean ± SD

## Nc1ccc(CC2CN(CC(=O)[O-])CCN(CC(=O)[O-])CCN(CC(=O)[O-])CCN2CC(=O)[O-])cc1.[177Lu+3] (centres unmarked) [^177Lu-DOTA-Bn]
[1]
  ^177Lu activity in Blood: 0.29±0.05 % IA/g
  ^177Lu activity in Bone: 0.04 ± 0.01 % IA/g
  ^177Lu activity in Heart: 0.11 ± 0.02 % IA/g
  ^177Lu activity in Kidneys: 0.56±0.08 % IA/g
  ^177Lu activity in Large Int.: 0.20 ± 0.11 % IA/g
  ^177Lu activity in Liver: 0.33 ± 0.04 % IA/g
  ^177Lu activity in Lungs: 0.20 ± 0.02 % IA/g
  ^177Lu activity in Muscle: 0.04 ± 0.01 % IA/g
  ^177Lu activity in Small Int.: 0.05 ± 0.01 % IA/g
  ^177Lu activity in Spleen: 0.22 ± 0.07 % IA/g
  ^177Lu activity in Stomach: 0.04 ± 0.01 % IA/g
  ^177Lu activity in Tumor: 5.53±0.27 % IA/g
[2]
  ^177Lu activity in Blood: 0.28±0.09 % IA/g
  ^177Lu activity in Bone: 0.04 ± 0.01 % IA/g
  ^177Lu activity in Heart: 0.07 ± 0.02 % IA/g
  ^177Lu activity in Kidneys: 0.73±0.05 % IA/g
  ^177Lu activity in Large Int.: 0.18 ± 0.01 % IA/g
  ^177Lu activity in Liver: 0.27 ± 0.07 % IA/g
  ^177Lu activity in Lungs: 0.20 ± 0.05 % IA/g
  ^177Lu activity in Muscle: 0.06 ± 0.01 % IA/g
  ^177Lu activity in Small Int.: 0.05 ± 0.01 % IA/g
  ^177Lu activity in Spleen: 0.60 ± 0.21 % IA/g
  ^177Lu activity in Stomach: 0.06 ± 0.01 % IA/g
  ^177Lu activity in Tumor: 7.58±0.78 % IA/g
PRIT + no CA, mean ± SEM
  ^177Lu activity in Blood: 4.95 ± 0.58 % IA/g
  ^177Lu activity in Bone: 0.39 ± 0.08 % IA/g
  ^177Lu activity in Heart: 1.14 ± 0.14 % IA/g
  ^177Lu activity in Kidneys: 2.31 ± 0.26 % IA/g
  ^177Lu activity in Large Int.: 0.58 ± 0.06 % IA/g
  ^177Lu activity in Liver: 1.85 ± 0.15 % IA/g
  ^177Lu activity in Lungs: 2.11 ± 0.23 % IA/g
  ^177Lu activity in Muscle: 0.38 ± 0.04 % IA/g
  ^177Lu activity in Small Int.: 0.58 ± 0.06 % IA/g
  ^177Lu activity in Spleen: 1.00 ± 0.11 % IA/g
  ^177Lu activity in Stomach: 0.34 ± 0.04 % IA/g
  ^177Lu activity in Tumor: 19.94±1.7 % IA/g and 19.94 ± 1.77 % IA/g
[3]
  Tumor-to-tissue ratio, Blood: 4.0±1.2
  Tumor-to-tissue ratio, Bone: 50.8 ± 22.7
  Tumor-to-tissue ratio, Heart: 17.5 ± 5.4
  Tumor-to-tissue ratio, Kidneys: 8.6 ± 2.5
  Tumor-to-tissue ratio, Large Int.: 34.4 ± 9.3
  Tumor-to-tissue ratio, Liver: 10.8 ± 2.6
  Tumor-to-tissue ratio, Lungs: 9.5 ± 2.6
  Tumor-to-tissue ratio, Muscle: 52.1 ± 15.2
  Tumor-to-tissue ratio, Small Int.: 34.5 ± 9.3
  Tumor-to-tissue ratio, Spleen: 19.9 ± 5.5
  Tumor-to-tissue ratio, Stomach: 59.1 ± 18.8
  ^177Lu activity in Blood: 4.95±1.17 % IA/g
  ^177Lu activity in Bone: 0.39 ± 0.16 % IA/g
  ^177Lu activity in Heart: 1.14 ± 0.29 % IA/g
  ^177Lu activity in Kidneys: 2.31 ± 0.52 % IA/g
  ^177Lu activity in Large Int.: 0.58 ± 0.12 % IA/g
  ^177Lu activity in Liver: 1.85 ± 0.30 % IA/g
  ^177Lu activity in Lungs: 2.11 ± 0.45 % IA/g
  ^177Lu activity in Muscle: 0.38 ± 0.09 % IA/g
  ^177Lu activity in Small Int.: 0.58 ± 0.12 % IA/g
  ^177Lu activity in Spleen: 1.00 ± 0.21 % IA/g
  ^177Lu activity in Stomach: 0.34 ± 0.09 % IA/g
  ^177Lu activity in Tumor: 19.94±3.54 % IA/g
[4]
  Tumor-to-tissue ratio, Blood: 7.1 ± 4.1
  Tumor-to-tissue ratio, Bone: 80.6 ± 61.9
  Tumor-to-tissue ratio, Heart: 16.0 ± 9.6
  Tumor-to-tissue ratio, Kidneys: 9.7 ± 6.0
  Tumor-to-tissue ratio, Large Int.: 29.9 ± 10.7
  Tumor-to-tissue ratio, Liver: 15.0 ± 7.8
  Tumor-to-tissue ratio, Lungs: 15.8 ± 7.9
  Tumor-to-tissue ratio, Muscle: 67.5 ± 20.1
  Tumor-to-tissue ratio, Small Int.: 33.7 ± 19.2
  Tumor-to-tissue ratio, Spleen: 12.6 ± 3.3
  Tumor-to-tissue ratio, Stomach: 59.2 ± 17.0
  ^177Lu activity in Blood: 1.03 ± 0.58 % IA/g
  ^177Lu activity in Bone: 0.09 ± 0.07 % IA/g
  ^177Lu activity in Heart: 0.45 ± 0.27 % IA/g
  ^177Lu activity in Kidneys: 0.75 ± 0.46 % IA/g
  ^177Lu activity in Large Int.: 0.24 ± 0.08 % IA/g
  ^177Lu activity in Liver: 0.49 ± 0.25 % IA/g
  ^177Lu activity in Lungs: 0.46 ± 0.23 % IA/g
  ^177Lu activity in Muscle: 0.11 ± 0.03 % IA/g
  ^177Lu activity in Small Int.: 0.22 ± 0.12 % IA/g
  ^177Lu activity in Spleen: 0.58 ± 0.14 % IA/g
  ^177Lu activity in Stomach: 0.12 ± 0.03 % IA/g
  ^177Lu activity in Tumor: 7.26 ± 0.55 % IA/g
[5]
  Tumor-to-tissue ratio, Blood: 13.1 ± 5.1
  Tumor-to-tissue ratio, Bone: 159.0 ± 66.7
  Tumor-to-tissue ratio, Heart: 45.1 ± 18.9
  Tumor-to-tissue ratio, Kidneys: 8.7 ± 3.2
  Tumor-to-tissue ratio, Large Int.: 18.9 ± 10.9
  Tumor-to-tissue ratio, Liver: 14.6 ± 5.3
  Tumor-to-tissue ratio, Lungs: 19.6 ± 7.4
  Tumor-to-tissue ratio, Muscle: 84.5 ± 37.6
  Tumor-to-tissue ratio, Small Int.: 39.8 ± 21.2
  Tumor-to-tissue ratio, Spleen: 9.8 ± 4.4
  Tumor-to-tissue ratio, Stomach: 50.1 ± 20.7
  ^177Lu activity in Blood: 0.52 ± 0.08 % IA/g
  ^177Lu activity in Bone: 0.04 ± 0.01 % IA/g
  ^177Lu activity in Heart: 0.15 ± 0.03 % IA/g
  ^177Lu activity in Kidneys: 0.78 ± 0.09 % IA/g
  ^177Lu activity in Large Int.: 0.36 ± 0.16 % IA/g
  ^177Lu activity in Liver: 0.46 ± 0.04 % IA/g
  ^177Lu activity in Lungs: 0.35 ± 0.05 % IA/g
  ^177Lu activity in Muscle: 0.08 ± 0.02 % IA/g
  ^177Lu activity in Small Int.: 0.17 ± 0.07 % IA/g
  ^177Lu activity in Spleen: 0.69 ± 0.20 % IA/g
  ^177Lu activity in Stomach: 0.14 ± 0.03 % IA/g
  ^177Lu activity in Tumor: 6.76 ± 2.39 % IA/g
[6]
  Tumor-to-tissue ratio, Blood: 25.6 ± 13.9
  Tumor-to-tissue ratio, Bone: 63.5 ± 97.0
  Tumor-to-tissue ratio, Heart: 63.5 ± 35.2
  Tumor-to-tissue ratio, Kidneys: 9.4 ± 4.3
  Tumor-to-tissue ratio, Large Int.: 37.7 ± 18.5
  Tumor-to-tissue ratio, Liver: 21.2 ± 9.7
  Tumor-to-tissue ratio, Lungs: 28.5 ± 14.3
  Tumor-to-tissue ratio, Muscle: 84.6 ± 45.2
  Tumor-to-tissue ratio, Small Int.: 99.7 ± 47.9
  Tumor-to-tissue ratio, Spleen: 9.6 ± 4.9
  Tumor-to-tissue ratio, Stomach: 133.0 ± 76.7
  ^177Lu activity in Blood: 0.27 ± 0.08 % IA/g
  ^177Lu activity in Bone: 0.11 ± 0.16 % IA/g
  ^177Lu activity in Heart: 0.11 ± 0.04 % IA/g
